Data reported in patent US4730006A, “Derivatives of 2,6-diamino-3-haloheptanedioic acid” (Merrell Dow Pharmaceuticals Inc., priority 1986, dated 1988).
pIC50, pKi: −log10 of the molar value. Converted amounts (≈) assume the structure as drawn. Where a name gives a salt, the structure may show the parent alone. Read-outs that look alike come from different tables or passages of the source.

Tests used:
[1] = target: T1, Escherichia coli DAP-epimerase (E.C. 5.1.1.7) (Escherichia coli, UniProt P0A6K1); assay: Inhibition of Escherichia coli DAP-epimerase (E.C. 5.1.1.7); format: biochemical, Escherichia coli (PR7)
T1 construct: endogenous in cells; host or cells: E. coli PR7; Endogenous enzyme purified by ammonium sulfate 30-45%, DE52 and Matrix green A dye-ligand column
T1 sequence (P0A6K1 whole entry): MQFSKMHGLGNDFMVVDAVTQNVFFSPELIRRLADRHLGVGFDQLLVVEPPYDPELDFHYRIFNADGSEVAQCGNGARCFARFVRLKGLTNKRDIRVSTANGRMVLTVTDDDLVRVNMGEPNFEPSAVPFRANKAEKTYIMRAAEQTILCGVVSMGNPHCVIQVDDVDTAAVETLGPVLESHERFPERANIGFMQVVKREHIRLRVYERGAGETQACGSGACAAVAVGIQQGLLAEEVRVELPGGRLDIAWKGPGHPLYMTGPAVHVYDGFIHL
Description: Strains were inoculated into Nutrient bath (5 ml) and grown up overnight (16 hours) at 37° C. Small amounts of cells were obtained in shake flask cultures (50 ml-1000 ml) obtained by innoculating Igarashi medium (Igarashi et al., 1979), with 2% of the starter culture. Cells were harvested at late-log (OD 540 nm 0,7-0,8) and rinsed before storage at -20° C. Larger amounts of cells were obtained using an overnight culture (Igarashi medium) of 2,5 l as innoculum for 80 l of Igarashi medium in a Biolaffite Fermenter. Cells were harvested in late-log (OD 540 nm 2.0) using a filtration system for cell concentration (40 fold) followed by centrifugation.
Cells from E. Coli (PR7), usually in batches of 40 g, were suspended in 100 ml buffer A (20 mM potassium phosphate 1 mM EDTA, 1 mM DTT, pH 7.0) by using the Ultraturrax apparatus (10 min). Passage through the French press (20,000 lbs/sq ins) and centrifugation 30,000 xg for 20 min gave the S30 crude extract. The supernatent was fractionated by adding solid ammonium sulfate to 30%, centrifugation was followed by further ammonium sulfate to 45%. The precipitated protein was dissolved in buffer to give a final volume of 10 ml which was dialysed overnight against 2,000 ml of buffer A.
The dialysed crude enzyme preparation was applied to a DEAE-cellulose column (2.3×49 cms) DES52, equilibrated with buffer A. The column was washed with 250 ml of buffer A and eluted with a linear gradiant formed by adding 250 ml of buffer A containing 0,22M KCl to 250 ml of buffer A. The flow rate was 25 ml/hr and 10 ml fractions were collected. DAP-epimerase eluted near the end of the gradiant at approximately 0,20M KCl. Pooled fractions containing DAPepimerase activity were dialysed overnight against 2,000 ml buffer A. Enzyme was concentrated by applying the dialysate to a smal DES52 column (0.9×10 cms), rinsing with 50 ml of buffer A and eluting with buffer A containing 0,50M KCl. The flow-rate was 20 ml/hr and 2,5 ml fractions were collected. Enzyme activity eluted immediately and pooled fractions were dialized against 1,000 ml buffer A.
A final purification step was obtained by applying the concentrated dialysed enzyme to a dye ligand column (1,4×5 cms), Matrix green A, rinsing with 50 ml buffer A and then eluting with 50 ml of buffer A containing 1,2M […] collecting 5 ml fractions. Pooled fractions were dialysed and concentrated on a small DE52 as described above.
(§1) DAP-epimerase activity was routinely measured at 25° C. Reaction mixtures contained 0.1M Tris HCl (pH 7,8), 1 mH EDTA, 1 mM DTT and […] of [G-^3 H]DAP in a total volume of 0.10 ml. After incubation for 40 min, reaction mixtures were quenched with 0.5 ml of 10% TCA and applied to 1 ml of AG50×4 ion-exchange resin (H' form) contained in a column (about 0.4×2 cms) fashioned from a blue pipette cone. The column was washed with 3×0.5 ml of water and the combined eluants counted for radioactivity.
(§2) In vitro DAP-epimerase, purified as described above, was incubated at 25° C. with various concentrations of δ-fluoro-ε-carboxylysine (usually 0, 10, 20, 40, 80 and […]) as described in the enzyme assay above.
*Values determined by Dixon plots (Ref. Dixon, M., 1972).

A. aerogenes (62.1) = assay: MIC, serial dilutions in plates, A. aerogenes; format: cell-based; conditions: Klebsiella aerogenes
Description: (§3) The antibacterial spectrum and minimal inhibitory concentration (MIC) of typical compounds of the present invention are determined by one or more standard techniques. Thus, for example, serial dilutions of the compound being tested are made in tubes of rich medium containing no peptide […] (Atherton et al., 1979) or in plates containing the same medium plus agar. Series of tubes or plates of agar containing different concentrations of the test compound are inoculated with the cultures utilized to determine activity. After incubation for 24 hours at 37° C., the inoculated tubes or agar plates are examined for the inhibition of bacterial growth and an MIC is determined therefrom.
(§4) The following example illustrates the in vitro activity of the compounds of this invention against a variety of pathogenic organisms.
(§5) *Serial dilutions in plates as described by Atherton et al. (1979).

[2] = tested on: P. aerogerosa (ATCC 25619); assay: MIC, serial dilutions in plates, P. aerogerosa; format: cell-based
Description: as §3, §4, §5

[3] = tested on: S. marcescens (ATCC 8100); assay: MIC, serial dilutions in plates, S. marcescens; format: cell-based; conditions: Serratia marcescens, ATCC8100
Description: as §3, §4, §5

[4] = In vivo studies: serum levels in mice by bioassay; design: species or system CFW mice; conditions: for Serum half-life: mice
Description: Groups of 3 fasted CFW mice (20 g±2) were dosed subcutaneously with 20, 50 or 100 mg/kg or orally with 50 or 100 mg/kg of δ-fluoro-ε-carboxylysyl-L-alanyl-L-alanine. At intervals of from 10 min to 210 min, after dosing animals were anesthetised with ether, and heparinized blood samples obtained by eye-puncture. Samples were kept on ice and the plasma removed. After dilution (1:1) with saline, aliquots were assayed for δ-fluoro-ε-carboxylysyl-L-alanyl-alanine by bioassay.
The antibacterial activity of δ-fluoro-ε-carboxylysyl-L-alanyl-alanine was determined by plate assay on "Roche" agar medium (adjusted to pH 6,5-see Atherton et al. (1979) using Aerobacter aerogenes as the test strain. Standard solutions of δ-fluoro-ε-carboxylysyl-L-alanyl-alanine were prepared by suitable dilutions in water (from the same solution used for injection) and 0,4 μg to 7,0 μg were applied to sterile discs (9 mm dia.) concomittently with serum samples. After overnight incubation at 37° C., zones of inhibition were measured across two diameters. A standard plot of zone diameter vs log. concentration of standards was prepared. The average serum concentration of δ-fluoro-ε-carboxylysyl-L-alanyl-alanine from 3 mice was taken from this standard plot. Control serum had no activity and 50% serum had no effect on the standard plot.

E. coli (PR7) = assay: MIC, serial dilutions in plates, E. coli; format: cell-based; conditions: Escherichia coli
Description: as §3, §4, §5

[5] = target: T2, DAP-epimerase (EC 5.1.1.7) (Serratia marcescens, UniProt A0A0G3SSC4); assay: Inhibition of DAP-epimerase partially purified from Serratia marcescens; format: biochemical, Serratia marcescens (ATCC 8100); conditions: enzyme partially purified from S. marcescens (ATCC 8100) through to the first DE52 column
T2 sequence (A0A0G3SSC4 1-274): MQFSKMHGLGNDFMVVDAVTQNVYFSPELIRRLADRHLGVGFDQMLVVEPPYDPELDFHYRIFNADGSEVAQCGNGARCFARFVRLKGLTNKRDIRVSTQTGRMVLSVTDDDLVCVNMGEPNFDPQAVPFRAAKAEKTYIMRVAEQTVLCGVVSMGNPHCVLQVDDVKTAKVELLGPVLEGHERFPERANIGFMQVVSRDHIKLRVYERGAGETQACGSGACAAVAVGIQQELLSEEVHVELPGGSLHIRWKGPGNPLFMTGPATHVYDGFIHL
Description: as §1, §2
(§6) **DAPepimerase was partially purified from each organism as described
(§7) (Example VII) through to the first DE52 column except that with Aerobacte

[6] = target: T3, DAP-epimerase (EC 5.1.1.7) (Pseudomonas aeruginosa, UniProt Q51564); assay: Inhibition of DAP-epimerase partially purified from Pseudomonas aerogenosa; format: biochemical, Pseudomonas aerogenosa (ATCC 25619); conditions: enzyme partially purified from P. aerogerosa (ATCC 25619) through to the first DE52 column
T3 construct: **DAPepimerase was partially purified from each organism as described; endogenous in cells; host or cells: Pseudomonas aeruginosa ATCC 25619; Purified through the first DE52 column
T3 sequence (Q51564 1-276): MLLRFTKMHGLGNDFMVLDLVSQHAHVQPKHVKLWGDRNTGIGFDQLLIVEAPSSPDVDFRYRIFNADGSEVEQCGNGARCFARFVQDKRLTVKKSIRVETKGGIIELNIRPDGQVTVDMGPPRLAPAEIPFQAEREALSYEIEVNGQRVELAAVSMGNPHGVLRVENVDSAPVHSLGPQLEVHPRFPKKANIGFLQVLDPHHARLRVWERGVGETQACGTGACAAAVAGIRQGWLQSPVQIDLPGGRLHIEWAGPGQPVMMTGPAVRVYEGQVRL
Description: as §1, §2, §6, §7

| MIC (A. aerogenes (62.1)) [µg/mL] | MIC [2] [µg/mL] | MIC [3] [µg/mL] | MIC (E. coli (PR7)) [µg/mL] | SMILES | pKi [1] | other results |
| --- | --- | --- | --- | --- | --- | --- |
|  |  |  |  | NC(CCC(F)(F)C(N)C(=O)O)C(=O)O (stereo not drawn) [δ,δ-difluoro-ε-carboxylysine, 1,5-diamino-2,2-difluoro-1,5-pentanedicarboxylic acid, dihydrochloride] |  | pIC50 ([1]; purified E. coli DAP-epimerase, 25° C., read-out: IC50): 4.30 |
| 12.5 (≈ 35.7 µM) | 100 (≈ 285 µM) | 0.2 (≈ 0.571 µM) | 12.5 (≈ 35.7 µM) | C[C@H](NC(=O)[C@H](C)NC(=O)[C@@H](N)CCC(F)C(N)C(=O)O)C(=O)O (stereo partly drawn) [δ-FLUORO-ε-CARBOXYLYSYL-L-ALANYL-L-ALANINE] |  | Serum half-life ([4]; P.O. (printed on the 50 mg/kg line)): 1.07 h; Serum half-life ([4]; S.C. (printed on the 50 mg/kg line)): 1.2 h; Serum levels compared with minimum inhibition concentrations of infectious microorganisms ([4]; mouse, in vivo): consistently above the minimum inhibition concentrations |
|  |  |  |  | NC(CCC(Cl)C(N)C(=O)O)C(=O)O (stereo not drawn) [δ-chloro-ε-carboxylysine, 1,5-diamino-2-chloro-1,5-pentanedicarboxylic acid, dihydrochloride] | 6.30 |  |
|  |  |  |  | NC(CCC(F)C(N)C(=O)O)C(=O)O (stereo not drawn) [δ-fluoro-ε-carboxylysine, 3-fluoro-2,6-diaminopimelic acid] | 5.11 | pIC50 [1]: 5.87; Inhibition after aliquots were removed and diluted 50-fold with the assay medium ([1]; in vitro, enzyme incubated with inhibitor at 25° C., then diluted 50-fold): no inhibition was observed; pKi [5]: 6.00; pKi [6]: 5.27 |
| 6 (≈ 21.5 µM) | 0.8 (≈ 2.86 µM) | 0.2 (≈ 0.716 µM) | 12.5 (≈ 44.8 µM) | C[C@H](NC(=O)[C@@H](N)CCC(F)C(N)C(=O)O)C(=O)O (stereo partly drawn) [δ-fluoro-ε-carboxylysylalanine, δ-Fluoro-ε-carboxylysyl-L-alanine] |  |  |
